Source: US20220193241A1, “AGENT TARGETING DOUBLE-MEMBRANE ORGANELLE DNA” (CHIBA-PREFECTURE, priority 2019, published 2022)

What was measured:
A549 cells [1] = experiment: Synthetic lethality: cell morphology with CCC021-TPP and ABT-199 or A1155463; assay type: cell-based; settings: single administration: 20 μM CCC021-TPP, 10 μM ABT-199, 10 μM A1155463; 4 days
Method: It was confirmed with the BCL2- and BCL-XL-specific inhibitor that the suppression of cell death in the cellular senescence of the A549 cells was presumably due to the BCL pathway. The type of BCL pathway inhibition, combined use of which could induce cell death (apoptosis) in the senescent cells of the A549 cells was studied. Five hundred A549 cells were inoculated to a 96-well plate and cultured for 24 hours. Then, change in cell morphology was photographed under an optical microscope either without administration (i.e., after DMSO treatment) or 4 days after treatment with 20 μM CCC021-TPP and 10 μM BCL2 inhibitor ABT-199 (compound venetoclax of No. 33 in FIG. 55-10) or 10 μM BCL-XL inhibitor A1155463 (compound of No. 16 in FIG. 55-6) each alone, or treatment by combined use of the same concentration of CCC021-TPP with the same concentration of ABT-199 or A1155463.

A549 cells [2] = experiment: Synthetic lethality: cell morphology with CCC021-TPP and ABT-263; assay type: cell-based; settings: each used alone: 20 μM CCC021-TPP, 10 μM ABT-263; days 2 and 4
Excerpt: Since the suppression of cell death in the cellular senescence of the A549 cells was presumably due to the BCL pathway, it was believed that the apoptosis of cells whose cellular senescence was evoked by CCC021-TPP could be induced by combined use with ABT-263 (Cayman Chemical Company) serving as a senolytic drug and a BCL pathway inhibitor. Thus, the possibility of inducing the cell death of senescent cells by CCC021-TPP treatment and combined use with the BCL2/BCL-XL inhibitor ABT-263 was observed under an optical microscope to observe change in cell morphology. Five hundred A549 cells were inoculated to a 96-well plate, cultured for 24 hours, and then observed over time under an optical microscope either without administration or after administration of 20 μM CCC021-TPP and 10 μM ABT-263 each used alone or used concurrently, and cell morphology was photographed on days 2 and 4.

3243G High cells = experiment: Mitochondrial autophagy (LC3 / cytochrome C immunostaining); assay type: cell-based, human; settings: 100 nM, 52 hours after treatment
Method: In order to study whether the decrease in the number of mutant mtDNA by PIP-TPP was caused by mitochondrial autophagy reaction, the following experiment was conducted. The mtDNA mutation cell line 3243G High cells were inoculated at 2×10^4 cells/dish to a 35 mm glass base dish (IWAKI), cultured for 24 hours, and then treated with the compound (final concentration: 100 nM). 52 hours after treatment, the cells were fixed with 4% paraformaldehyde (PFA)/PBS at room temperature for 30 minutes. The cells thus fixed were washed with PBS and blocked with 10% FBS/0.1% Triton X100/TBS (TBST) for 10 minutes. TBS is a mixed solution of sodium chloride (final concentration: […]) and Tris (pH 7.4) (final concentration: […]). After the completion of blocking, the cells were reacted overnight at 4° C. with primary antibodies diluted with TBST. The primary antibodies used were a rabbit anti-LC3 antibody (Cell Signaling Technology, Inc.) diluted at 1:200, and a mouse anti-cytochrome C antibody (Thermo Fisher Scientific, USA) diluted at 1:500. After the completion of reaction with the primary antibodies, the cells were washed three times with TBS and reacted for 15 minutes with secondary antibodies diluted with TBST, i.e., Goat anti Rabbit Oregon Green 488 (Invitrogen) diluted at 1:1000 and Goat anti Mouse Alexa Fluor 647 (Invitrogen) diluted at 1:1000. […]

3243G Low cells [3] = experiment: Total mitochondrial DNA copy number by PCR of COII gene; assay type: cell-based, human; settings: 1 μM and 5 μM, 48- or 63-day treatment
Method: (§1) The 3243G Low cells were inoculated at 2×10^4 cells/well to a 35 mm dish (Falcon, USA), cultured for 24 hours, and then treated with CCC019-TPP (final concentration: 1 μM and 5 μM). The medium was replaced once two days, and CCC019-TPP was continuously administered. Further, 48 and 63 days later, DNA was extracted using Allprep DNA/RNA Mini Kit (QIAGEN, Germany) according to the instruction manual. The yield of the DNA thus extracted was measured using NANODROP 2000c (Thermo Fisher Scientific). DNA samples were prepared, and PCR reaction and analysis were conducted. The primers and reaction conditions used are shown below.
(§2) The reaction conditions were as follows.
After the completion of PCR reaction, PCR products were electrophoresed on 2% agarose gel and then stained with ethidium bromide to detect bands of the PCR products. The bands were quantified with analytical software (Image J).
In order to predict the total copy number of mtDNA in the 3243G Low cells treated with CCC019-TPP for 48 or 63 days, COII gene constituting mitochondrial respiratory chain complex IV was subjected to PCR.

3243G Low cells [4] = experiment: Ratio between normal mtDNA and mutant mtDNA by PCR-RFLP; assay type: cell-based, human; settings: 1 μM and 5 μM, 48- or 63-day treatment
Method: as §1, with “(Falcon),” for “(Falcon, USA),”, “(QIAGEN)” for “(QIAGEN, Germany)”, “2000™” for “2000c”, “was” for “and analysis were”
as §2
PCR products were treated with restriction enzyme ApaI as described below, and analyzed. The PCR products were purified using QIAquick PCR Purification Kit (QIAGEN) according to the instruction manual. After the purification, the yield of DNA was measured using NANODROP 2000c (Thermo Fisher Scientific). After the measurement, reaction products amplified in PCR System 9700 (Applied Biosystems, USA) GeneAmp(R) were treated with restriction enzyme Apal at 37° C. for 5 hours. After the completion of reaction, 15 ng of samples was electrophoresed on 2% agarose gel and then stained with ethidium bromide to detect bands of the PCR products. The bands were quantified with analytical software (Image J). […]

[5] = Skin penetrability confirmation experiment (anti-TPP immunohistochemical staining); assay type: in vivo, mice ICR; settings: 18 hours
Method: Outbred mice ICR were purchased from Oriental Yeast Co., Ltd. The experiment was conducted by the administration of linear-chain PIP-TPP (CCC149-TPP) having a molecular weight of 1274.7 to the mouse back. The back skin of each 5-week-old ICR mouse was shaved. After confirmation that the hair growth cycle was not reached, DMSO containing no PIP-TPP, and solutions of PIP-TPP (dissolved in DMSO, dissolved in 95% DMSO/5% laurocapram (transdermal absorption promoter) and dissolved in 95% DMSO/5% laurocapram 24 hours after stratum corneum removal) adjusted so as to attain 30 mg/cm^2 were applied to 4 locations, respectively, of the back as shown in FIG. 28 at the age of 6 weeks. 18 hours later, the mouse was euthanized, and skin tissues were obtained and fixed in 4% paraformaldehyde. Then, paraffin blocks were prepared and co-stained by immunohistochemical staining with an anti-TPP antibody and DAPI staining of the nucleus to test the skin penetrability of the drug into cells and subcutaneous tissues.

C33A = experiment: WST cell proliferation assay of library compounds; assay type: cell-based; settings: Homo sapiens, C-33-A, 120 h, 5 days
Method: (§3) This compound can recognize the T4216C mutation of mitochondrial ND1 gene, and a uterine cervical cancer cell line C33A has this mutation. Cell proliferation assay with wild-type HeLa cells, which is also a uterine cervical cancer cell line, was conducted in the same manner as in Example 1. 1000 cells were inoculated to a 96-well plate, and CCC1283-TPP was administered at 0.5, 1, 5, 10, and 20 μM. 5 days later, WST assay was conducted.
as §3, with “CCCh531-TPP” for “CCC1283-TPP”
(§4) Compound CCCh560-TPP with a decacyclic structure targeting the A8860G polymorphism of mitochondrial gene ATP6 found in human populations, not acquired mitochondrial mutations in somatic cells, was studied for whether the suppression of cell proliferation was also found by 5-day treatment with the compound for the mitochondrial DNA polymorphism in cancer cell lines C33A, HeLa, Siha, Caski, and ME180 having this polymorphism in homoplasmy and human nontumor skin-derived fibroblast HDF cells. For this purpose, cell proliferation assay was conducted in the same manner as in Example 1. 1000 cells were inoculated to a 96-well plate, and CCCh560-TPP was administered at 0.5, 1, 5, 10, and 20 μM. 5 days later, WST assay was conducted.

HeLa cells = experiment: WST cell proliferation assay of library compounds; assay type: cell-based; settings: Homo sapiens, 120 h, 5 days
Method: as §3
as §3, with “CCCh531-TPP” for “CCC1283-TPP”
as §4

For CN(C)CC#Cc1ccc(OCCCc2sc(N3CCc4cccc(C(=O)Nc5nc6ccccc6s5)c4C3)nc2C(=O)O)c(F)c1 [A1155463, reference compound], the “cell death (morphology)” value (A549 cells [1]) was “Any finding indicating cell death was not obtained”.
With CC1(C)CCC(c2ccc(Cl)cc2)=C(CN2CCN(c3ccc(C(=O)NS(=O)(=O)c4ccc(N[C@H](CCN5CCOCC5)CSc5ccccc5)c(S(=O)(=O)C(F)(F)F)c4)cc3)CC2)C1 [ABT-263, Navitoclax (ABT-263), reference compound] the “cells that underwent apoptosis (morphology)” value (A549 cells [2]) was “not detected”.
With CC(=O)Nc1cn(C)c(C(=O)Nc2cn(C)c(C(=O)Nc3cn(C)c(C(=O)NCCC(=O)Nc4cc(C(=O)Nc5cc(C(=O)NCCCC(=O)Nc6cn(C)c(C(=O)Nc7cn(C)c(C(=O)Nc8cn(C)c(C(=O)NCCC(=O)Nc9cc(C(=O)Nc%10cc(C(=O)NCCC(=O)NCCCN(C)C)n(C)c%10)n(C)c9)n8)n7)n6)n(C)c5)n(C)c4)n3)n2)n1 [CCC018-TPP] the “colocalization of autophagic marker LC3 with mitochondria (mitophagy)” value (3243G High cells) was “colocalization of the autophagic effect with mitochondria was clearly observed”.
With CN(C)CCCNC(=O)CCNC(=O)c1nc(NC(=O)c2nc(NC(=O)CCNC(=O)c3cc(NC(=O)c4nc(NC(=O)c5nc(NC(=O)CCCNC(=O)c6cc(NC(=O)c7cc(NC(=O)c8nc(NC(=O)CCNC(=O)c9cc(NC(=O)c%10cc(NC(=O)CCNC(=O)CCCC[P+](c%11ccccc%11)(c%11ccccc%11)c%11ccccc%11)cn%10C)cn9C)cn8C)cn7C)cn6C)cn5C)cn4C)cn3C)cn2C)cn1C [CCC019-TPP] the “total copy number of mtDNA” value (3243G Low cells [3]) was “tendency to increase the total copy number of mtDNA” and the “ratio between normal mtDNA and mutant mtDNA” value (3243G Low cells [4]) was “tendency to increase the proportion of wild-type mitochondrial DNA and decrease the proportion of mutant mitochondrial DNA”.
With CN(C)CCCNC(=O)CCNC(=O)c1cc(NC(=O)c2nc(NC(=O)CCNC(=O)c3nc(NC(=O)c4cc(NC(=O)c5nc(NC(=O)CCNC(=O)CCCC[P+](c6ccccc6)(c6ccccc6)c6ccccc6)cn5C)cn4C)cn3C)cn2C)cn1C [CCC149-TPP] the “skin penetrability (anti-TPP stain)” value ([5]; 95% DMSO/5% laurocapram (transdermal absorption promoter)) was “stain of TPP was found in the perikaryon of subcutaneous tissues”, the “skin penetrability (anti-TPP stain)” value ([5]; applied to back skin, dissolved in DMSO) was “present in skin basement membrane cells” and the “skin penetrability (anti-TPP stain)” value ([5]; stratum corneum removal and 95% DMSO/5% laurocapram) was “more clearly found into the subcutaneous tissues and muscular coat”.
In the case of CN(C)CCCNC(=O)CCNC(=O)c1cc(NC(=O)c2cc(NC(=O)c3nc(NC(=O)CCNC(=O)c4cc(NC(=O)c5cc(NC(=O)CCCNC(=O)c6nc(NC(=O)c7cc(NC(=O)CCNC(=O)c8cc(NC(=O)c9cc(NC(=O)c%10nc(NC(=O)CCNC(=O)CC[P+](c%11ccccc%11)(c%11ccccc%11)c%11ccccc%11)cn%10C)cn9C)cn8C)cn7C)cn6C)cn5C)cn4C)cn3C)cn2C)cn1C [CCCh531-TPP], the IC50 (C33A) is reported as 3.34 µM and the IC50 (HeLa cells) is reported as 11.8 µM.
